Test results as given in patent publication US20240189289A1, “INHIBITORS OF EPHB3 SIGNALING” (The Brigham and Women`s Hospital, Inc., priority 2021, published 2024).
“Also recorded” adds a separate entry of the source.

Columns and labels:
N2A neuronal cells = assay: Neurotoxicity assay of astrocyte-conditioned medium (LDH release); type: cell-based, mouse; details: ACM from astrocytes pre-treated with compound, LDH release after 24 h
Procedure: (§1) Generation of astrocyte-conditioned medium (ACM). […] After 24 h, cells were extensively washed with 1×PBS, and incubated with fresh astrocyte complete medium for 48 h. Supernatants were spun down and kept at −80° C. until tested in migration and neurotoxicity assays.
Neurotoxicity Assay. N2A neuronal cells (#CCL-131, ATCC) were plated and pre-activated with 100 ng/mL mouse IFNγ (#485-MI-100; R&D Systems) for 24 h.
Thereafter, after extensive washing with 1×PBS, medium was replaced with ACM and after 24 h the supernatant was harvested for cytotoxicity evaluation by measuring LDH release with CytoTox 96 nonradioactive cytotoxicity assay kit (#G1780, Promega) following the manufacturer's protocol.

splenic CD11b+ monocytes = assay: Monocyte migration assay with astrocyte-conditioned medium; type: cell-based, mouse; details: ACM from astrocytes pre-treated with compound
Procedure: as §1
Monocyte Migration Assay. Monocytes were purified from spleens from C57BL/6J mice using CD11b Microbeads (#130-049-601, Miltenyi) following the manufacturer's instructions. 100,000 monocytes were seeded in the upper chamber of a 24-well cell culture transwell, with a 5 μm pore size (#3421, Thermo Fisher Scientific), containing 300 μL of astrocyte-conditioned medium (as detailed earlier) in the bottom chamber. After 3 h incubation at 37° C. in 5% CO2, cells were collected from the lower chamber after shaking and accutase solution incubation (#A6964, Sigma-Aldrich) and quantified by FACS.

astrocytes = assay: Mitochondrial ROS measurement (MitoSOX) in astrocytes; type: cell-based, mouse; details: Rotenone and Antimycin A given together
Procedure: Mitochondrial ROS measurement. 50,000 astrocytes were seeded per well in 96-well black plates and rested for 2 days in complete medium, followed by activation or inhibitor pretreatment for 24 h. MitoSOX red (Thermo Fisher Scientific, #M36008) was used to stain for mitochondrial ROS for 10 min following the manual and the signal was detected on Infinite M1000 PRO Microplate Reader (Tecan). The fluorescent signal was normalized to cell number estimated using CyQUANT cell proliferation assay kit (Invitrogen, #C7026) first and then compared to control group for data analysis.

Aqueous solubility = type: physicochemical; details: aqueous medium at pH 7.4 (buffer not specified), pH 7.4, aqueous buffer; read-out: aqueous solubility
[1] = MTT and ATP-viability assays; type: cell-based; details: 30 μM
EphB4 = biological target: T1, EphB4 (Homo sapiens, UniProt P54760); assay: Eph receptor kinase activity assay (radiometric), EphB4; type: biochemical; details: for remaining activity at 0.01 µM: 10 nM compound, read-out: EphB4 % act 10 nM; for remaining activity at 0.1 µM: 100 nM compound, read-out: EphB4 % act 100 nM; for remaining activity at 0.3 µM: 300 nM compound, read-out: EphB4 % act 300 nM
T1 sequence (P54760 16-987): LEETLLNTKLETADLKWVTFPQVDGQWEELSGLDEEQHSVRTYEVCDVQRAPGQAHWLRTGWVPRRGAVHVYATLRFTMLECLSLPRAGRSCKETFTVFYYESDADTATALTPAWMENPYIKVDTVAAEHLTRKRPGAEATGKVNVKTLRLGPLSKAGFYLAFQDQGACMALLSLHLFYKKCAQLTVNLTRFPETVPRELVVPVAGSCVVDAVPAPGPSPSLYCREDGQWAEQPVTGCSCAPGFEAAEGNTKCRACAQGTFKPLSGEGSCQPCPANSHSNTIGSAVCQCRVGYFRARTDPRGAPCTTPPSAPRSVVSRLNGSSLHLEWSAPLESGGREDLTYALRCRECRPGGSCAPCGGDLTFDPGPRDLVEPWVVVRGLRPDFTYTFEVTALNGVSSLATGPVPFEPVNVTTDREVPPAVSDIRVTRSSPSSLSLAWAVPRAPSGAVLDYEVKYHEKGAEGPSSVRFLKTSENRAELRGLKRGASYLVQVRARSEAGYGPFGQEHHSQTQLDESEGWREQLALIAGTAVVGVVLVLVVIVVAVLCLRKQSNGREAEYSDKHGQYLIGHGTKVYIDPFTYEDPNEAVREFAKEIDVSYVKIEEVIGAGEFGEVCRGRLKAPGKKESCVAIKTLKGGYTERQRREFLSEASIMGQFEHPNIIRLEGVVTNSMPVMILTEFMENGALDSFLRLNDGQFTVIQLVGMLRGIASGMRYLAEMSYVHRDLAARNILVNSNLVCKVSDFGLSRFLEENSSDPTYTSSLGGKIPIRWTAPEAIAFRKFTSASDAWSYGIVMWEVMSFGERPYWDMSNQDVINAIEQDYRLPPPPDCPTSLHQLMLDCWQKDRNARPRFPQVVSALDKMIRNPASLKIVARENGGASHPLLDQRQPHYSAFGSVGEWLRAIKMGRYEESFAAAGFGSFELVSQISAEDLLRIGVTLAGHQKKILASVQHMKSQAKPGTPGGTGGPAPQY

EphB3 = biological target: T2, EphB3 (Homo sapiens, UniProt P54753); assay: EphB3 radiometric kinase activity assay (33P ATP filter binding); type: biochemical; details: for remaining activity at 0.01 µM: 10 nM compound, read-out: EphB3 % act 10 nM; for remaining activity at 0.1 µM: 100 nM compound, read-out: EphB3 % act 100 nM; for remaining activity at 0.3 µM: 300 nM compound, read-out: EphB3 % act 300 nM
T2 sequence (P54753 34-998): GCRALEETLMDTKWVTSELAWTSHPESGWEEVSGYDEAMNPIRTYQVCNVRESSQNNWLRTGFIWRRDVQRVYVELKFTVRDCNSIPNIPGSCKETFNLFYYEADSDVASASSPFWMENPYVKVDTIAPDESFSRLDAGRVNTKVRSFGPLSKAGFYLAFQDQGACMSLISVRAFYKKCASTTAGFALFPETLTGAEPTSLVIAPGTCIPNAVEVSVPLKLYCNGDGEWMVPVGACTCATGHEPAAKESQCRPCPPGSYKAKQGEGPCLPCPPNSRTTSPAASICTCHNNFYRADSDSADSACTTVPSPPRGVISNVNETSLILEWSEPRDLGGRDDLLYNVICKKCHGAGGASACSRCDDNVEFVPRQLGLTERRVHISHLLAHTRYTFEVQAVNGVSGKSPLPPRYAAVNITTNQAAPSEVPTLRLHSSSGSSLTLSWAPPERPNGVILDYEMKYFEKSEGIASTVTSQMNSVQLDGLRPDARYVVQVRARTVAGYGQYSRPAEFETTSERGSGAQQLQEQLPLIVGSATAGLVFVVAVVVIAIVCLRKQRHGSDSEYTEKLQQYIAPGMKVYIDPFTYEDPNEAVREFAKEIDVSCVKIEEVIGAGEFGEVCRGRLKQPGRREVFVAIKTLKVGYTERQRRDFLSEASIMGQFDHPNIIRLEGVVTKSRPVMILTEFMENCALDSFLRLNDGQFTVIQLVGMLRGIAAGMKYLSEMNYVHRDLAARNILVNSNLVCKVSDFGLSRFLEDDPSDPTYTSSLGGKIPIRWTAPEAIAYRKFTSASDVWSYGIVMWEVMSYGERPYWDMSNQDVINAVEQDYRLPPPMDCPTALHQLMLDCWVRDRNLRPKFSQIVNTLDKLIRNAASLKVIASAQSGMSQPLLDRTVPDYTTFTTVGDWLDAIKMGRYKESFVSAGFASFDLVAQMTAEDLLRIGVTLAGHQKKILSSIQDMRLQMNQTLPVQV
Procedure: EphB3 radiometric kinase activity assay. To study the EphB3 kinase activity, a radioactive filter binding assay using 33P ATP was performed as described at the […] International Centre for Kinase profiling. […] The mix was harvested onto P81 filter plates and counts were read on a Topcount NXT.

EphA4 = EphA4 (Homo sapiens, UniProt P54764); assay: Eph receptor kinase activity assay (radiometric), EphA4; type: biochemical
[2] = test system: PI3K/AKT/mTOR signaling in astrocytes; assay: Western blot of PI3K/AKT/mTOR/NF-κB signaling in primary murine astrocytes; type: cell-based, mouse; details: astrocytes activated 30 minutes with TNFα and IL-1β
Procedure: Mouse primary astrocyte cultures. […] The cell suspension was then cultured at 37° C. in humidified 5% CO2 on poly-L-Lysine (#P4707, Sigma-Aldrich) pre-coated cell culture flasks. Medium was replaced every 3-5 days. The cells reached confluence after 7-10 days. Microglia were separated by shaking the glia culture at 225 rpm at 37° C. for at least 3 h and washing extensively with 1×PBS. Astrocytes were detached by mild trypsinization with Trypsin-EDTA (0.05%) at 37° C. and plated. […] Both cell types were then cultured separately for downstream procedures. […] Finally, microglia and astrocytes of each condition where magnetically separated as before and lysed for downstream gene expression analysis.
SDS-PAGE and Western blot. […] Membranes were blocked in 10% skimmed milk (#M0841, Lab Scientific) in TBS-T (#IBB-180-2L, Boston BioProducts). Primary antibodies were incubated ON at 4° C. and secondary 30 minutes at RT.
HRP-conjugated blots were developed using the KwikQuant imaging system and KwikQuant western blot detection kit (#R1004 Kindle Biosciences).

EphA2 = EphA2 (Homo sapiens, UniProt P29317); assay: Eph receptor kinase activity assay (radiometric), EphA2; type: biochemical
EphA2, sequence (P29317 24-976): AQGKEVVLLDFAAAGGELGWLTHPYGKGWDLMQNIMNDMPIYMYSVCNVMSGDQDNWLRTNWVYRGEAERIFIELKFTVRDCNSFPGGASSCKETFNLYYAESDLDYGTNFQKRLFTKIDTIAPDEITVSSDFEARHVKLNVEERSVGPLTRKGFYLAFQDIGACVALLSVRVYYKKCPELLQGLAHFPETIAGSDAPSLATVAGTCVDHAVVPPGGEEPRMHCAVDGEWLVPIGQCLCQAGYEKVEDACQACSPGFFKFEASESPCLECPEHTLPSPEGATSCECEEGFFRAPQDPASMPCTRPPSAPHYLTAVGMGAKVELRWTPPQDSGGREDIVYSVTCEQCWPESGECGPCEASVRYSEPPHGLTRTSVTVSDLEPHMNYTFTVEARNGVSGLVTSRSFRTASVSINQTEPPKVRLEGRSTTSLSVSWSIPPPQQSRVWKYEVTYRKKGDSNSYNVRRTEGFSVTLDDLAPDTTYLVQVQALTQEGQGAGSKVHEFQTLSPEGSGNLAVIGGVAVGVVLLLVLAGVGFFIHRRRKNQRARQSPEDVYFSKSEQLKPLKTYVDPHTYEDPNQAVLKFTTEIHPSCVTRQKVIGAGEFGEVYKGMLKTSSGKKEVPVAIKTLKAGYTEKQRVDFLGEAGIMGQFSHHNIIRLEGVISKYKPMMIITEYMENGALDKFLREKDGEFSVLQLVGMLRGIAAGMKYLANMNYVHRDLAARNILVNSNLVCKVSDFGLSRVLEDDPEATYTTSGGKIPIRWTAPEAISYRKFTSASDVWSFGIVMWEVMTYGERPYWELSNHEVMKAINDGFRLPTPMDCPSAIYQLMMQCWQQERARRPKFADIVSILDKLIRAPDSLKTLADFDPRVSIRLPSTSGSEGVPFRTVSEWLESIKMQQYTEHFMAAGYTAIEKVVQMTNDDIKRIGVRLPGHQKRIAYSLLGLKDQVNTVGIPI

EphA4, sequence (P54764 20-986): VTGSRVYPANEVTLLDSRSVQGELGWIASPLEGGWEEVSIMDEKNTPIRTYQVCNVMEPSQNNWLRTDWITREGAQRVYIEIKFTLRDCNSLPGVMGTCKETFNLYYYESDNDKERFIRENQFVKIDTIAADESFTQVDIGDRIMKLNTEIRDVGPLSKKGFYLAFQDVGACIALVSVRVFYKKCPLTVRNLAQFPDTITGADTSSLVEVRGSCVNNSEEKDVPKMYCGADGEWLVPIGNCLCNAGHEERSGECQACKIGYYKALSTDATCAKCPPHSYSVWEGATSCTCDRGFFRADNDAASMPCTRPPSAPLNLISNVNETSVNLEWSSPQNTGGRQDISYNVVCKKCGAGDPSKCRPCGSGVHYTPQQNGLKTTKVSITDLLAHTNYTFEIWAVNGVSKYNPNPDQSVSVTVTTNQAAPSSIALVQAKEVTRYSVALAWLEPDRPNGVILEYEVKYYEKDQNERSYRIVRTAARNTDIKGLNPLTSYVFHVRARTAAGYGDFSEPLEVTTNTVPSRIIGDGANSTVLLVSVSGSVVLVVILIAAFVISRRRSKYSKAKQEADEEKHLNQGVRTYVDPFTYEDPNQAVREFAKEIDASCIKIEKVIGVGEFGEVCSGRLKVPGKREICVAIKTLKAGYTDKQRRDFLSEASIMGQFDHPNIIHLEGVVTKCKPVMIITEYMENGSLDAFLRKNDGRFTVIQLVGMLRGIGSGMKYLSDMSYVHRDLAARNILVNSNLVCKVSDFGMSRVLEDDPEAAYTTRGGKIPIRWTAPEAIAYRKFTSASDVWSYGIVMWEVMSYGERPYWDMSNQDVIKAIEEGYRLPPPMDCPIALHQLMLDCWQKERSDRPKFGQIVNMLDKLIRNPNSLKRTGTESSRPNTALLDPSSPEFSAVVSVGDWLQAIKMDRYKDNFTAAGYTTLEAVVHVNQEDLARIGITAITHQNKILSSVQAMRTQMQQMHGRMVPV

## O=C(CCl)Nc1ccc2c(Nc3cc(O)ccc3Cl)ncnc2c1 [C9]
N2A neuronal cells
  ACM neurotoxic activity: decrease in neurotoxicity; also recorded: reduced ACM neurotoxic
Splenic CD11b+ monocytes
  ACM chemoattractant activity: reduced ACM neurotoxic and chemoattractant activity

## C=C(C)[C@H]1Cc2c(ccc3c2O[C@@H]2COc4cc(OC)c(OC)cc4[C@@H]2C3=O)O1 [Rotenone, reference compound]
astrocytes
  mitochondrial ROS levels: increases mitochondrial ROS levels

## O=C(Nc1ccccc1Cl)c1cnc2ccc(C3CCNCC3)cn12 [A-38, N-(2-chlorophenyl)-6-(piperidin-4-yl)imidazo[1,2-a]pyridine-3-carboxamide]
Aqueous solubility
  solubility: > 10000 µg/mL
[1]
  cytotoxicity in MTT and ATP-viability assays: no cytotoxicity
EphB4
  remaining activity at 0.01 µM: 68%
  remaining activity at 0.1 µM: 9%
  remaining activity at 0.3 µM: 3%
EphB3
  remaining activity at 0.01 µM: 37%
  remaining activity at 0.1 µM: 14%
  remaining activity at 0.3 µM: 7%
EphA4; 10 nM compound
  EphA4 % act 10 nM: 32%
EphA4; 100 nM compound
  EphA4 % act 100 nM: 14%
EphA4; 300 nM compound
  EphA4 % act 300 nM: 9%

## FC(F)c1nc2ccccc2n1-c1nc(N2CCOCC2)nc(N2CCOCC2)n1 [ZSTK474, reference compound]
[2]
  phosphorylation of AKT: suppressed

## O=C(Nc1ccccc1Cl)c1cnc2ccc(-c3ccncc3)cn12 [compound 114, N-(2-Chlorophenyl)-6-(pyridin-4-yl)imidazo[1,2-a]pyridine-3-carboxamide]
EphA2; 10 nM compound, read-out: EphA2 % act 10 nM
  remaining activity at 0.01 µM: 51%
EphA2; 100 nM compound, read-out: EphA2 % act 100 nM
  remaining activity at 0.1 µM: 32%
EphA2; 300 nM compound, read-out: EphA2 % act 300 nM
  remaining activity at 0.3 µM: 14%
EphB4
  remaining activity at 0.01 µM: 39%
  remaining activity at 0.1 µM: 4%
  remaining activity at 0.3 µM: 4%
EphB3
  remaining activity at 0.01 µM: 52%
  remaining activity at 0.1 µM: 13%
  remaining activity at 0.3 µM: 5%
EphA4; 10 nM compound, read-out: EphA4 % act 10 nM
  remaining activity at 0.01 µM: 49%
EphA4; 100 nM compound, read-out: EphA4 % act 100 nM
  remaining activity at 0.1 µM: 21%
EphA4; 300 nM compound, read-out: EphA4 % act 300 nM
  remaining activity at 0.3 µM: 10%
